Key:
[1] = target: Replicase polyprotein 1ab (Severe acute respiratory syndrome coronavirus 2) (UniProt P0DTD1); assay: Inhibition of SARS-CoV-2 Main protease at 2 uM relative to control
[2] = Inhibition of Porcine epidemic diarrhea virus Main protease
[3] = target: Replicase polyprotein 1ab (Severe acute respiratory syndrome coronavirus 2) (UniProt P0DTD1); assay: (§1) Inhibition of SARS-CoV-2 Main protease
[4] = target: Replicase polyprotein 1ab (Severe acute respiratory syndrome coronavirus 2, UniProt P0DTD1); assay: as §1
[5] = Selectivity ratio of CC50 for cytotoxicity against African green monkey Vero E6 cells to EC50 for antiviral activity against SARS-CoV-2 infected in African green monkey Vero E6 cells; type: toxicity, cell-based, Vero C1008; conditions: read-out: Ratio CC50/EC50
[6] = Cytotoxicity against African green monkey Vero E6 cells assessed as reduction of cell viability; type: toxicity, cell-based, Vero C1008; conditions: chlorocebus sabaeus
[7] = system: SARS-CoV-2; assay: Antiviral activity against SARS-CoV-2 infected in African green monkey Vero E6 cells assessed as inhibition of viral replication; type: functional, organism-based; conditions: Severe acute respiratory syndrome coronavirus 2, Vero C1008
[8] = system: Porcine epidemic diarrhea virus; assay: Antiviral activity against Porcine epidemic diarrhea virus infected in African green monkey Vero E6 cells assessed as inhibition of viral replication; type: functional, organism-based; conditions: Vero C1008

For `COc1ccc(-c2nc(N)n(C)c2SSc2c(-c3ccc(OC)cc3)nc(N)n2C)cc1`, the inhibition [1] was > 50%, the IC50 [2] was 120 nM and the inhibition [3] was “Dose-Dependent Effect”. The IC50 [4] was 30 nM, the selectivity ratio [5] was > 10 and the CC50 [6] was 50200 nM. For the same compound, the EC50 [7] was 4090 nM and the EC50 [8] was 5680 nM.

For `CC(=O)O[C@H](CC=C(C)C)C1=CC(=O)c2c(O)ccc(O)c2C1=O` [ACETYLSHIKONIN], the inhibition [1] was > 50% and the IC50 [4] was 350 nM.

For `CC(C)=CC[C@@H](OC(=O)CC(C)(C)O)C1=CC(=O)c2c(O)ccc(O)c2C1=O` [BETA-HYDROXYISOVALERYLSHIKONIN], the inhibition [1] was > 50% and the IC50 [4] was 1020 nM.

Source: ChEMBL document CHEMBL5385945, “An ascidian Polycarpa aurata-derived pan-inhibitor against coronaviruses targeting Mpro” (Bioorg Med Chem Lett, 2024)
